Measurements as given in patent publication US20040259932A1, “Method and compound to reduce the incidence of diabetes in a subject with chronic heart failure” (priority 2003, published 2004).
“Also recorded” adds a separate entry of the source.

Key:
[1] = tested on: patients with hypertension; conditions: cited from earlier work; for patients who developed diabetes: losartan compared with atenolol
Elderly = conditions: candesartan compared with placebo; nonsignificant; cited from earlier work
hypertensive population = conditions: captopril compared with a β-blocker or a diuretic; cited from earlier work
[2] = compared with metoprolol; cited from earlier work
[3] = tested on: patients with left ventricular dysfunction; assay: Retrospective analysis of Montreal Heart Institute patients of the SOLVD trials: new-onset diabetes (FPG≧126 mg/dL at 2 visits); format: in vivo, human
From the text: The patients from the Montreal Heart Institute who were randomized in the SOLVD trials were included in this study. SOLVD was a multicenter, double-blind, randomized, placebo-controlled trial that assessed the effect of the ACE inhibitor enalapril on survival in patients with left ventricular dysfunction (ejection fraction≦35%). The details of the trial have been described elsewhere.^12 Briefly, the prevention trial included 4228 patients with asymptomatic left ventricular dysfunction, and the treatment trial randomized 2569 patients with congestive heart failure from June 1986 to August 1991. Patients were randomized to enalapril (5 to 20 mg/day) or placebo. Exclusion criteria included age >80 years, unstable angina pectoris, myocardial infarction in the previous month, severe pulmonary disease, renal insufficiency (creatinine level>177 μmol/L [2 mg/dL]), and intolerance to ACE inhibitor or current ACE inhibitor use. Follow-up visits were scheduled 2 and 6 weeks after randomization and every 4 months until the end of the study, for a mean follow-up of 3.4 and 3.1 years for the treatment and prevention trials, respectively.
Baseline characteristics, past medical history, and medication profiles at the time of enrolment into the SOLVD trials were obtained from the SOLVD databases. Fasting plasma glucose (FPG) was not collected for research purposes in the SOLVD trials. However, follow-up of patients in SOLVD involved regular blood samples, including FPG, at almost every research visit. Accordingly, the medical file of each patient was reviewed, and FPG results were collected. Chart reviewers were blinded to treatment allocation.
A diagnosis of new onset diabetes during the follow-up period was defined according to the American Diabetes Association criteria^13 as a FPG≧126 mg/dL (7.0 mmol/L) at 2 different visits. For the purpose of the present study, the visits in which FPG≧126 occurred during infection, trauma, or acute myocardial infarction were not included.
Participants with diabetes at baseline (history of diabetes or FPG≧126 mg/dL at screening visit) were excluded. The study population was further divided among patients with impaired FPG at baseline (110 mg/dL[6.1 mmol/L]≦FPG<126mg/dL [7.0 mmol/L]) and those with normal FPG at baseline (FPG<110 mg/dL).
The baseline characteristic of the 2 groups were compared using Student's t test for continuous variables and the X^2 test for categorical variables. Incidence of diabetes in the 2 groups was compared with the X^2 test. Time to occurrence of diabetes during the follow-up was analyzed with Kaplan-Meier curves and compared with the log-rank test. To analyze the effect of the treatment (enalapril) on development of diabetes, a Cox regression analysis was used to take into account the effect of potential confounding baseline variables (age, sex, current smoking, history of hypertension, and weight) and time-dependent variables (systolic blood pressure; diastolic blood pressure; and use of β-blockers, diuretics, calcium-channel blockers, antiplatelet agents, or antiarrhythmics). Cox proportional-hazard models were performed for each variable, with treatment (enalapril) forced in all models. Variables with a P≦0.2 were included in a multivariate Cox proportional hazard model. […] Subgroup analyses were conducted with the X^2 test. In the particular subgroup of patients with impaired FPG at baseline, Kaplan-Meier curves were performed. Preliminary assumptions were verified before all analyses. P<0.05 was considered significant. All analyses were performed using SAS version 8.2 (SAS Institute, Inc).

[4] = tested on: obese, hypertensive, and dyslipidemic patients; conditions: given for 12 weeks; cited from earlier work
hypertensive rats = conditions: cited from earlier work
[5] = tested on: high-risk patients with no evidence of left ventricular dysfunction; conditions: cited from earlier work

CC(C)NCC(O)COc1ccc(CC(N)=O)cc1 (stereo not drawn) [atenolol]
patients who developed diabetes [1]: 8%

CCOc1nc2cccc(C(=O)O)c2n1Cc1ccc(-c2ccccc2-c2nnn[nH]2)cc1 [candesartan]
relative reduction in the incidence of diabetes (Elderly): 20%

C[C@H](CS)C(=O)N1CCC[C@H]1C(=O)O [captopril]
relative risk of developing diabetes (RR) (hypertensive population): 0.86

COc1ccccc1OCCNCC(O)COc1cccc2[nH]c3ccccc3c12 (stereo not drawn) [carvedilol]
effect on insulin sensitivity [2]: favorable effect on insulin sensitivity

CCOC(=O)[C@H](CCc1ccccc1)N[C@@H](C)C(=O)N1CCC[C@H]1C(=O)O [enalapril]
probability of remaining free from diabetes during follow-up ([3]; Kaplan-Meier, enalapril vs placebo, P<0.0001, FIG. 1): significantly higher
New cases of diabetes, % ([3]; Prevention arm of the trial (n = 198)): 6.0%
Absolute Risk Reduction ([3]; Prevention arm of the trial (n = 198), enalapril vs placebo): 13.4%
New cases of diabetes, % ([3]; Treatment arm of the trial (n = 93)): 5.7%
Absolute Risk Reduction ([3]; Treatment arm of the trial (n = 93), enalapril vs placebo): 24.3%
relative risk [RR] of new-onset diabetes ([3]; enalapril vs placebo, total population): 0.26
New cases of diabetes, % ([3]; impaired FPG at baseline, IFG (n = 55)): 3.3%
Absolute Risk Reduction ([3]; impaired FPG at baseline, IFG (n = 55), enalapril vs placebo): 45%
Absolute Risk Reduction ([3]; impaired FPG at baseline, IFG (n = 55), enalapril vs placebo, listed as Enalapril): 44.7%
Hazard Ratio for development of diabetes ([3]; multivariate analysis, Cox regression model, 95% confidence intervals 0.10 to 0.46): 0.22
New cases of diabetes, % ([3]; normal FPG at baseline, NFG (n = 236)): 6.6%
Absolute Risk Reduction ([3]; normal FPG at baseline, NFG (n = 236), enalapril vs placebo): 10.7%
risk of developing diabetes (in words) ([3]; patients with left ventricular systolic dysfunction): markedly reduced the risk of developing diabetes; also recorded: markedly reduces the risk of developing diabetes mellitus
New cases of diabetes, % ([3]; total population (n = 291), enalapril 5 to 20 mg/day, mean follow-up 2.9 years): 5.9%
Absolute Risk Reduction ([3]; total population (n = 291), enalapril vs placebo): 16.5%
number of patients to treat to prevent one new case of diabetes ([3]; treated for 2.9 years): 6 patients
insulin sensitivity [4]: improved insulin sensitivity
insulin sensitivity (hypertensive rats): improved insulin sensitivity

CCCCc1nc(Cl)c(CO)n1Cc1ccc(-c2ccccc2-c2nn[nH]n2)cc1 [losartan]
patients who developed diabetes [1]: 6%
RR of developing diabetes ([1]; losartan vs atenolol): 0.75

CCOC(=O)[C@H](CCc1ccccc1)N[C@@H](C)C(=O)N1[C@H](C(=O)O)C[C@@H]2CCC[C@@H]21 [ramipril]
RR of developing diabetes ([5]; ramipril vs placebo): 0.66
incidence of diabetes ([5]; treatment period of 4.5 years): 3.6%
reduction of the relative risk of developing diabetes ([5]; treatment period of 4.5 years, ramipril vs placebo): 34%
